Data: patent US8329743B2, “Compositions and its use in treating obesity or inducing weight loss” (Sami Labs Limited, priority 2011, dated 2012)
Values after ≈ are worked out from the molar mass of the structure shown.

System: 3T3-L1 mouse adipocyte cells
Test: Adipogenesis inhibition, Oil Red-O staining of adipocytes
Assay type: cell-based
Conditions: Table 1, 3T3-L1 mouse adipocytes, OD 492 nm, read-out: Adipogenesis inhibitory activity (IC50)
Excerpt: Adipogenesis, or the development of fat cells from preadipocytes, has been one of the most intensely studied models for obesity. A fat cell develops as internally produced lipid droplets coalesce into a single large mass. The in vitro adipogenesis inhibitory model can recapitulate most of the critical aspects of fat cell formation in vivo.
A common assay to measure adipocyte differentiation in cell culture is with the dye Oil Red-O, which is a lipid-soluble red dye. Since terminal differentiation of adipocytes is accompanied by the accumulation of great amounts of lipids in large cytoplasmic vesicles, a strong, bright, staining of the cytoplasm with this dye is a reliable indicator of adipocyte differentiation.
3T3-L1 mouse adipocyte cells are seeded at a density of 5000 cell/200 μl of adipocyte induction medium in a 96 well plate. After 48 hrs, sample is added. After 72 hrs, the medium is changed to adipocyte progression medium along with the sample. The medium is similarly changed after another 48 hours. The plates are washed gently after 48 hrs with 100 μl of PBS. […] The OD reading is taken at 492 nm in microplate reader.
The results are expressed as IC50 values using Graphpad prism software. The percentage of inhibition of adipogenesis is calculated as follows,
[formula] Where C—absorbance due to adipogenesis in untreated cells • T—absorbance due to adipogenesis in sample treated cells

Structure (SMILES)	IC50 [µg/mL]
C=C(C)[C@@H](CC=C(C)C)C[C@@]12C[C@@H](CC=C(C)C)C(C)(C)[C@@](CC=C(C)C)(C(=O)C(C(=O)c3ccc(O)c(O)c3)=C1O)C2=O [Garcinol]	0.2 (≈ 0.332 µM)
COc1cc(C=Cc2ccc(O)cc2)cc(OC)c1 [Pterostilbene, 3,5-dimethoxy-4′-hydroxystilbene]	13.3 (≈ 52 µM)
